Data published in ChEMBL document CHEMBL4130422, “Design, synthesis and biological evaluation of novel C-29 carbamate celastrol derivatives as potent and selective cytotoxic compounds” (Eur J Med Chem, 2017).
Values belong to the compound of their own block, whether it stands above or below them. Calls of active or inactive are those of the source. The calls are words filed in the database; no cut-off is given here.

Experiments:
MIA PaCa-2 = experiment: Antiproliferative activity against human MIAPaCa2 cells after 72 hrs by MTT assay; assay type: functional, cell-based; conditions: MIA PaCa-2, 72 h
A549 = experiment: Antiproliferative activity against human A549 cells after 72 hrs by MTT assay; assay type: functional, cell-based; conditions: A549, 72 h
BJ = experiment: Antiproliferative activity against human BJ cells after 72 hrs by MTT assay; assay type: cell-based
MDA-MB-231 = experiment: Antiproliferative activity against human MDA-MB-231cells after 72 hrs by MTT assay; assay type: functional, cell-based; conditions: MDA-MB-231, 72 h
MCF7 = experiment: Antiproliferative activity against human MCF7 cells after 72 hrs by MTT assay; assay type: functional, cell-based; conditions: MCF7, 72 h
SK-OV-3 [1] = experiment: Antiproliferative activity against human SKOV3 cells after 72 hrs by MTT assay; assay type: functional, cell-based; conditions: SK-OV-3, 72 h
HT-29 = experiment: Antiproliferative activity against human HT-29 cells after 72 hrs by MTT assay; assay type: functional, cell-based; conditions: HT-29, 72 h
SK-OV-3 [2] = experiment: Induction of apoptosis in human SKOV3 cells assessed as cell shrinkage at IC50 after 48 hrs by Hoechst 33342 staining-based fluorescence microscopic method; assay type: functional
SK-OV-3 [3] = experiment: Induction of apoptosis in human SKOV3 cells assessed as decrease in Bcl-2 expression levels at IC50 after 72 hrs by Western blot analysis; assay type: functional, cell-based
SK-OV-3 [4] = experiment: Induction of apoptosis in human SKOV3 cells assessed as increase in cleaved caspase-9 expression levels at IC50 after 72 hrs by Western blot analysis; assay type: functional, cell-based
SK-OV-3 [5] = experiment: Synergistic antiproliferative activity against human SKOV3 cells assessed as combination index at 0.125 uM after 72 hrs in presence of 8 uM carboplatin by MTT assay; assay type: functional
SK-OV-3 [6] = experiment: Induction of apoptosis in human SKOV3 cells assessed as increase in cleaved caspase-8 expression levels at IC50 after 72 hrs by Western blot analysis; assay type: functional, cell-based
SK-OV-3 [7] = experiment: Induction of apoptosis in human SKOV3 cells assessed as decrease in procaspase-3 expression levels at IC50 after 72 hrs by Western blot analysis; assay type: functional, cell-based
SK-OV-3 [8] = experiment: Induction of apoptosis in human SKOV3 cells assessed as decrease in full-length PARP expression levels at IC50 after 72 hrs by Western blot analysis; assay type: functional, cell-based
SK-OV-3 [9] = experiment: Induction of apoptosis in human SKOV3 cells assessed as increase in Bid expression levels at IC50 after 72 hrs by Western blot analysis; assay type: functional, cell-based
SK-OV-3 [10] = experiment: Induction of apoptosis in human SKOV3 cells assessed as formation of apoptotic bodies at IC50 after 48 hrs by Hoechst 33342 staining-based fluorescence microscopic method; assay type: functional, cell-based
SK-OV-3 [11] = experiment: Induction of apoptosis in human SKOV3 cells assessed as nuclear condensation at IC50 after 48 hrs by Hoechst 33342 staining-based fluorescence microscopic method; assay type: functional, cell-based
SK-OV-3 [12] = experiment: Induction of apoptosis in human SKOV3 cells assessed as increase in Bax expression levels at IC50 after 72 hrs by Western blot analysis; assay type: functional, cell-based
SK-OV-3 [13] = experiment: Synergistic antiproliferative activity against human SKOV3 cells assessed as combination index at 1 uM after 72 hrs in presence of 64 uM carboplatin by MTT assay; assay type: functional
SK-OV-3 [14] = experiment: Induction of apoptosis in human SKOV3 cells assessed as nuclear fragmentation at IC50 after 48 hrs by Hoechst 33342 staining-based fluorescence microscopic method; assay type: functional, cell-based
SK-OV-3 [15] = experiment: Induction of apoptosis in human SKOV3 cells assessed as decrease in procaspase-8 expression levels at IC50 after 72 hrs by Western blot analysis; assay type: functional, cell-based
SK-OV-3 [16] = experiment: Induction of apoptosis in human SKOV3 cells at IC50 by Annexin V-FITC/propidium iodide double-staining-based FACS analysis; assay type: functional, cell-based; conditions: TDE = time-dependent effect
SK-OV-3 [17] = experiment: Anticlonogenic activity against human SKOV3 cells assessed as reduction in colony formation efficiency treated for 24 hrs followed by incubation in drug free medium for 12 days by crystal violet staining-based assay; assay type: functional, cell-based
SK-OV-3 [18] = experiment: Induction of apoptosis in human SKOV3 cells assessed as increase in cleaved caspase-3 expression levels at IC50 after 72 hrs by Western blot analysis; assay type: functional, cell-based
SK-OV-3 [19] = experiment: Synergistic antiproliferative activity against human SKOV3 cells assessed as combination index at 0.5 uM after 72 hrs in presence of 32 uM carboplatin by MTT assay; assay type: functional
SK-OV-3 [20] = experiment: Synergistic antiproliferative activity against human SKOV3 cells assessed as combination index at 0.25 uM after 72 hrs in presence of 16 uM carboplatin by MTT assay; assay type: functional
SK-OV-3 [21] = experiment: Induction of apoptosis in human SKOV3 cells assessed as decrease in procaspase-9 expression levels at IC50 after 72 hrs by Western blot analysis; assay type: functional, cell-based
SK-OV-3 [22] = experiment: Synergistic antiproliferative activity against human SKOV3 cells assessed as combination index at 2 uM after 72 hrs in presence of 128 uM carboplatin by MTT assay; assay type: functional
SK-OV-3 [23] = experiment: Induction of apoptosis in human SKOV3 cells assessed as early apoptotic cells at IC50 after 72 by Annexin V-FITC/propidium iodide double-staining-based FACS analysis (reference value: 4.5%); assay type: functional
SK-OV-3 [24] = experiment: Cell cycle arrest in human SKOV3 cells at IC50 at 24 to 72 hrs by propidium iodide staining-based FACS analysis; assay type: functional
SK-OV-3 [25] = experiment: Induction of apoptosis in human SKOV3 cells assessed as increase in cleaved PARP expression levels at IC50 after 72 hrs by Western blot analysis; assay type: functional, cell-based

Structure (SMILES): CC(=O)Oc1cc2c(c(C)c1OC(C)=O)CC=C1[C@@]2(C)CC[C@@]2(C)[C@@H]3C[C@](C)(N=C=O)CC[C@]3(C)CC[C@]12C
IC50 (MIA PaCa-2): 1.41 µM
IC50 (A549): 2.89 µM

Structure (SMILES): CC1=C(O)C(=O)C=C2C1=CC=C1[C@@]2(C)CC[C@@]2(C)[C@@H]3C[C@](C)(NC(=O)OCC(C)(C)CO)CC[C@]3(C)CC[C@]12C
IC50 (MIA PaCa-2): 1 µM
IC50 (A549): 1.58 µM

Structure (SMILES): Cc1c(O)c(O)cc2c1CC=C1[C@@]2(C)CC[C@@]2(C)[C@@H]3C[C@](C)(C(=O)O)CC[C@]3(C)CC[C@]12C [DIHYDROCELASTROL]
IC50 (MIA PaCa-2): 0.72 µM
IC50 (A549): 3.15 µM

Structure (SMILES): COC(=O)N[C@]1(C)CC[C@]2(C)CC[C@]3(C)C4=CC(=O)c5c(cc(OC)c(O)c5C)[C@]4(C)CC[C@@]3(C)[C@@H]2C1
IC50 (MIA PaCa-2): > 10 µM
IC50 (A549): > 10 µM

Structure (SMILES): CCOC(=O)N[C@]1(C)CC[C@]2(C)CC[C@]3(C)C4=CC(=O)c5c(cc(O)c(O)c5C)[C@]4(C)CC[C@@]3(C)[C@@H]2C1
IC50 (MIA PaCa-2): > 10 µM
IC50 (A549): > 10 µM

Structure (SMILES): CC(=O)Oc1cc2c(c(C)c1OC(C)=O)CC=C1[C@@]2(C)CC[C@@]2(C)[C@@H]3C[C@](C)(C(=O)O)CC[C@]3(C)CC[C@]12C
IC50 (MIA PaCa-2): 0.56 µM
IC50 (A549): 2.21 µM

Structure (SMILES): CC1=C(O)C(=O)C=C2C1=CC=C1[C@@]2(C)CC[C@@]2(C)[C@@H]3C[C@](C)(C(=O)O)CC[C@]3(C)CC[C@]12C [CELASTROL]
IC50 (BJ): 2.74 µM
IC50 (MDA-MB-231): 1.32 µM
IC50 (MIA PaCa-2): 0.46 µM
IC50 (A549): 1.56 µM
IC50 (MCF7): 1.35 µM
IC50 (SK-OV-3 [1]): 1.16 µM
IC50 (HT-29): 1.28 µM

Structure (SMILES): CC(=O)Oc1cc2c(c(C)c1OC(C)=O)C(=O)C=C1C2(C)CC[C@@]2(C)[C@@H]3C[C@](C)(C(=O)O)CC[C@]3(C)CC[C@]12C (single isomer, unassigned)
IC50 (MIA PaCa-2): > 10 µM
IC50 (A549): > 10 µM

Structure (SMILES): CCOC(=O)N[C@]1(C)CC[C@]2(C)CC[C@]3(C)C4=CC=C5C(=CC(=O)C(O)=C5C)[C@]4(C)CC[C@@]3(C)[C@@H]2C1
IC50 (MIA PaCa-2): 0.78 µM
IC50 (A549): 1.93 µM

Structure (SMILES): CC(=O)Oc1cc2c(c(C)c1OC(C)=O)C(=O)C=C1C2(C)CC[C@@]2(C)[C@@H]3C[C@](C)(N=C=O)CC[C@]3(C)CC[C@]12C (single isomer, unassigned)
IC50 (MIA PaCa-2): > 10 µM
IC50 (A549): > 10 µM

Structure (SMILES): COC(=O)N[C@]1(C)CC[C@]2(C)CC[C@]3(C)C4=CC(=O)c5c(cc(O)c(O)c5C)[C@]4(C)CC[C@@]3(C)[C@@H]2C1
IC50 (BJ): > 30 µM
IC50 (MIA PaCa-2): 6.5 µM
IC50 (A549): 6.53 µM
IC50 (SK-OV-3 [1]): 7.98 µM

Structure (SMILES): COC(=O)N[C@]1(C)CC[C@]2(C)CC[C@]3(C)C4=CC=C5C(=CC(=O)C(O)=C5C)[C@]4(C)CC[C@@]3(C)[C@@H]2C1
IC50 (MIA PaCa-2): 0.58 µM
IC50 (A549): 1.74 µM

Structure (SMILES): CC1=C(O)C(=O)C=C2C1=CC=C1[C@@]2(C)CC[C@@]2(C)[C@@H]3C[C@](C)(NC(=O)OCC(C)C)CC[C@]3(C)CC[C@]12C
IC50 (MIA PaCa-2): 0.8 µM
IC50 (A549): 2.23 µM

Structure (SMILES): CCOC(=O)N[C@]1(C)CC[C@]2(C)CC[C@]3(C)C4=CC(=O)c5c(cc(OC)c(OC)c5C)[C@]4(C)CC[C@@]3(C)[C@@H]2C1
IC50 (MIA PaCa-2): > 10 µM
IC50 (A549): > 10 µM

The next lines start with results.

IC50 (MIA PaCa-2): 0.4 µM
IC50 (A549): 1 µM
Structure (SMILES): CCCOC(=O)N[C@]1(C)CC[C@]2(C)CC[C@]3(C)C4=CC=C5C(=CC(=O)C(O)=C5C)[C@]4(C)CC[C@@]3(C)[C@@H]2C1

IC50 (MIA PaCa-2): 0.53 µM
IC50 (A549): 2.47 µM
Structure (SMILES): CC1=C(O)C(=O)C=C2C1=CC=C1[C@@]2(C)CC[C@@]2(C)[C@@H]3C[C@](C)(N=C=O)CC[C@]3(C)CC[C@]12C

IC50 (MIA PaCa-2): 0.38 µM
IC50 (A549): 2.77 µM
Structure (SMILES): CC(=O)Oc1cc2c(c(C)c1OC(C)=O)C(=O)C=C1[C@@]2(C)CC[C@@]2(C)[C@@H]3C[C@](C)(C=O)CC[C@]3(C)CC[C@]12C

IC50 (MIA PaCa-2): 0.48 µM
IC50 (A549): 1.87 µM
Structure (SMILES): CC(=O)Oc1cc2c(c(C)c1OC(C)=O)C(=O)C=C1[C@@]2(C)CC[C@@]2(C)[C@@H]3C[C@](C)(CO)CC[C@]3(C)CC[C@]12C

IC50 (MDA-MB-231): 1.35 µM
IC50 (MIA PaCa-2): 0.33 µM
IC50 (A549): 0.88 µM
IC50 (MCF7): 1.68 µM
IC50 (SK-OV-3 [1]): 0.54 µM
IC50 (HT-29): 1.54 µM
Structure (SMILES): COC(=O)N[C@]1(C)CC[C@]2(C)CC[C@]3(C)C4=CC(=O)c5c(cc(OC(C)=O)c(OC(C)=O)c5C)[C@]4(C)CC[C@@]3(C)[C@@H]2C1
Activity (SK-OV-3 [2]): Active
Activity (SK-OV-3 [3]): inactive
Activity (SK-OV-3 [4]): inactive
CI (SK-OV-3 [5]): 1.112
IC50 (BJ): 3.68 µM
Activity (SK-OV-3 [6]): Active
Activity (SK-OV-3 [7]): Active
Activity (SK-OV-3 [8]): Active
Activity (SK-OV-3 [9]): inactive
Activity (SK-OV-3 [10]): Active
Activity (SK-OV-3 [11]): Active
Activity (SK-OV-3 [12]): inactive
CI (SK-OV-3 [13]): 0.7863
Activity (SK-OV-3 [14]): Active
Activity (SK-OV-3 [15]): Active
Activity (SK-OV-3 [16]): Tde
Activity (SK-OV-3 [17]): Dose-dependent effect
Activity (SK-OV-3 [18]): Active
CI (SK-OV-3 [19]): 0.6273
CI (SK-OV-3 [20]): 0.9285
Activity (SK-OV-3 [21]): inactive
CI (SK-OV-3 [22]): 1.076
Activity (SK-OV-3 [23]): 29.9%
Activity (SK-OV-3 [24]): inactive
Activity (SK-OV-3 [25]): Active

IC50 (MIA PaCa-2): 0.36 µM
IC50 (A549): 1.27 µM
Structure (SMILES): CC(=O)Oc1cc2c(c(C)c1OC(C)=O)C(=O)C=C1[C@@]2(C)CC[C@@]2(C)[C@@H]3C[C@](C)(C(N)=O)CC[C@]3(C)CC[C@]12C

IC50 (MDA-MB-231): 0.52 µM
IC50 (MIA PaCa-2): 0.32 µM
IC50 (A549): 1.05 µM
IC50 (MCF7): 0.59 µM
IC50 (SK-OV-3 [1]): 0.45 µM
IC50 (HT-29): 1.02 µM
Structure (SMILES): CCCCCOC(=O)N[C@]1(C)CC[C@]2(C)CC[C@]3(C)C4=CC=C5C(=CC(=O)C(O)=C5C)[C@]4(C)CC[C@@]3(C)[C@@H]2C1
IC50 (BJ): 0.88 µM
